Test results as given in patent publication US20230312529A1, “PYRIMIDINE SMALL-MOLECULE COMPOUND AND APPLICATION THEREOF” (WENZHOU MEDICAL UNIVERSITY, priority 2021, published 2023).
Where two headings read alike, the source gives them in different places.

Experiments:
ABL1 = ABL1 (Homo sapiens (Human), UniProt P00519); test: Caliper Mobility Shift kinase inhibition test; format: biochemical; conditions: 100 nM; read-out: inhibitory rate on ABL1
Method: (§1) The method adopted in the test was Caliper Mobility Shift Assay, which was a detection platform based on the mobility detection technology of microfluidic chip technology. […] Collected data was tested on Caliper to yield that inhibition ratio to kinase activity=(max−conversion)/(max−min)×100. “max” was DMSO control without adding compound, and “min” was low control. When IC50 was determined, each sample was provided with 10 dilutions, each with 2 multiple holes, and repeated for 3 times.

PDGFRα = PDGFRα (Homo sapiens (Human), UniProt P16234); test: Caliper Mobility Shift kinase inhibition test; format: biochemical; conditions: for inhibition at 0.1 µM: 100 nM
Method: as §1

EGFR L858R/T790M/C797S = EGFR L858R/T790M/C797S (Homo sapiens (Human), UniProt P00533, C797S/L858R/T790M); test: Kinase selectivity test; format: biochemical; conditions: 100 nM
Method: (§2) The method adopted in the test was Caliper Mobility Shift Assay, which was a detection platform based on the mobility detection technology of microfluidic chip technology. Test steps: 1.25× kinase reaction buffer (62.5 mmol/L HEPES, pH 7.5; 0.001875% Brij-35; 12.5 mmol/L MgCl2; 2.5 mM DTT) and kinase reaction stop solution (100 mmol/L HEPES, pH 7.5; 0.015% Brij-35; 0.2% Coating Reagent #3) were configured. […] Collected data was tested on Caliper to yield that inhibition ratio to kinase activity=(max−conversion)/(max−min)×100. “max” was DMSO control without adding compound, and “min” was low control. When IC50 was determined, each sample was provided with 10 dilutions, each with 2 multiple holes, and repeated for 3 times.
(§3) According to the above-mentioned method for measuring kinase inhibitory activity, the inhibitory activity of the active compounds on other multiple kinases was measured to characterize the kinase selectivity of active inhibitors.

EGFR/T790M/L858R = EGFR/T790M/L858R (Homo sapiens (Human), UniProt P00533, L858R/T790M); test: Kinase selectivity test; format: biochemical; conditions: 100 nM
Method: as §2, §3

KDR = KDR (Homo sapiens (Human), UniProt P35968); test: Kinase selectivity test; format: biochemical; conditions: 100 nM
Method: as §2, §3

SRC = SRC (Homo sapiens (Human), UniProt P12931); test: Kinase selectivity test; format: biochemical; conditions: 100 nM
Method: as §2, §3

EGFR = EGFR (Homo sapiens (Human), UniProt P00533); test: Kinase selectivity test; format: biochemical; conditions: 100 nM
Method: as §2, §3

BTK = BTK (Homo sapiens (Human), UniProt Q06187); test: Kinase selectivity test; format: biochemical; conditions: 100 nM
Method: as §2, §3

EGFR T790M = EGFR T790M (Homo sapiens (Human), UniProt P00533, T790M); test: Kinase selectivity test; format: biochemical; conditions: 100 nM
Method: as §2, §3

EGFR L858R = EGFR L858R (Homo sapiens (Human), UniProt P00533, L858R); test: Kinase selectivity test; format: biochemical; conditions: 100 nM
Method: as §2, §3

FLT1 = FLT1 (Homo sapiens (Human), UniProt P17948); test: Kinase selectivity test; format: biochemical; conditions: 100 nM
Method: as §2, §3

FGFR3 = FGFR3 (Homo sapiens (Human), UniProt P22607); test: Kinase selectivity test; format: biochemical; conditions: 100 nM
Method: as §2, §3

FGFR1 = FGFR1 (Homo sapiens (Human), UniProt P11362); test: Kinase selectivity test; format: biochemical; conditions: 100 nM
Method: as §2, §3

JAK1 = JAK1 (Homo sapiens (Human), UniProt P23458); test: Caliper Mobility Shift kinase inhibition test; format: biochemical; conditions: for inhibition at 0.1 µM: 100 nM
Method: as §2, §3

FGFR2 = FGFR2 (Homo sapiens (Human), UniProt P21802); test: Caliper Mobility Shift kinase inhibition test; format: biochemical; conditions: for inhibition at 0.1 µM: 100 nM
Method: as §2, §3

PDGFRβ = PDGFRβ (Homo sapiens (Human), UniProt P09619); test: Caliper Mobility Shift kinase inhibition test; format: biochemical; conditions: for inhibition at 0.1 µM: 100 nM
Method: as §2, §3

[1] = tested on: human brain microvascular endothelial cells (HCMEC/D3); test: MTT assay on human neovascular cells; format: cell-based
[2] = tested on: human normal retinal cells ARPE-19; test: MTT assay on human retinal cells; format: cell-based

FGFR3, sequence (P22607 23-806, species assumed): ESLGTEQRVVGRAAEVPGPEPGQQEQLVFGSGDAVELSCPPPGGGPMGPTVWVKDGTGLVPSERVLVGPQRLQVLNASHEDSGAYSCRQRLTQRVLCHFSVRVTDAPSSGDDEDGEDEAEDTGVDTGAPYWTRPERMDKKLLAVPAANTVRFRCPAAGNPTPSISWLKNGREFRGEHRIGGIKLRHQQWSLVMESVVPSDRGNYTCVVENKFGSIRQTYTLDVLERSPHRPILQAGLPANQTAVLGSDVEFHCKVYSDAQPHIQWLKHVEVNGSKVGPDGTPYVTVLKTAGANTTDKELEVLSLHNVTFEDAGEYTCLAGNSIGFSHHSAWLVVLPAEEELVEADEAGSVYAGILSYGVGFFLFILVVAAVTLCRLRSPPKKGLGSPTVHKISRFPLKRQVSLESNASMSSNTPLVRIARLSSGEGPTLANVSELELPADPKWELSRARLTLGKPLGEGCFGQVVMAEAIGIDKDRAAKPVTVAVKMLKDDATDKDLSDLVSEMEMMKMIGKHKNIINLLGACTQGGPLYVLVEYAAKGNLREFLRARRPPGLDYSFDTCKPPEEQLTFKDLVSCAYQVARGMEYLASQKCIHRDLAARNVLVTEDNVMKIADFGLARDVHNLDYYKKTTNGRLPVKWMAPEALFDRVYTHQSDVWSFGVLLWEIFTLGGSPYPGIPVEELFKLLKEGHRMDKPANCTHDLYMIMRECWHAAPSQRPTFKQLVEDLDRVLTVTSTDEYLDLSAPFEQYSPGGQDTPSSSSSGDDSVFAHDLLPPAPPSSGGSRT
EGFR T790M, sequence (P00533 25-1210 T790M): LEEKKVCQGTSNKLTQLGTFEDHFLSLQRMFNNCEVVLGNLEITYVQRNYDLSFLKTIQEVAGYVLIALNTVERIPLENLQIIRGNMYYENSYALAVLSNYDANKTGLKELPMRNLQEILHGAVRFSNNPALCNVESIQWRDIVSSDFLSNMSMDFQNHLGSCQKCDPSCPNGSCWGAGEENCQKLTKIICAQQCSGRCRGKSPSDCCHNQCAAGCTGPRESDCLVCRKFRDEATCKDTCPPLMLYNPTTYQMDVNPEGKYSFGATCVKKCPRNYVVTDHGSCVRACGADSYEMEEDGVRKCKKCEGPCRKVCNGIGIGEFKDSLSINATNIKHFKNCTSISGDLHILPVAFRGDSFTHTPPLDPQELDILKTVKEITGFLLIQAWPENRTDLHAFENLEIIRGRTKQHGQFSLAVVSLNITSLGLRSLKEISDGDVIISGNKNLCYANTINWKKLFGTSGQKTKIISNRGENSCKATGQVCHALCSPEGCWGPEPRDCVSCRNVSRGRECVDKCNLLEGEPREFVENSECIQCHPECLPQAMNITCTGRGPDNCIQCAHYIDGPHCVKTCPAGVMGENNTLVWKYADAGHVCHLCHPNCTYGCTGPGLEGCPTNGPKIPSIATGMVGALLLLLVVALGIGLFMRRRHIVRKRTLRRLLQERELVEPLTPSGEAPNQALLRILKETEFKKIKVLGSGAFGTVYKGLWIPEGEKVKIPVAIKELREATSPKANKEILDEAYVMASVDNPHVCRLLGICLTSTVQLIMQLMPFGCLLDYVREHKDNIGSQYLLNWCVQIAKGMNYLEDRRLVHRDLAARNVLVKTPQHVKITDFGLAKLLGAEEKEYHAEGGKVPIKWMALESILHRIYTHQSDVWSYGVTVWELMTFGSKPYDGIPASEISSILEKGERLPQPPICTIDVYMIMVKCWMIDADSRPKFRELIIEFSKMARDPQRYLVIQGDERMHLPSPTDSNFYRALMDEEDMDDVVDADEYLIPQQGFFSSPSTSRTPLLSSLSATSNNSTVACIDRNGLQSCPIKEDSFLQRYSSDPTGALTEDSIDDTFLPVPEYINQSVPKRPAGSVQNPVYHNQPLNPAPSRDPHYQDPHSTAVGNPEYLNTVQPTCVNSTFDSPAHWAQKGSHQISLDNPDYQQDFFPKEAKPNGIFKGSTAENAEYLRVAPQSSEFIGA
EGFR L858R, sequence (P00533 25-1210 L858R): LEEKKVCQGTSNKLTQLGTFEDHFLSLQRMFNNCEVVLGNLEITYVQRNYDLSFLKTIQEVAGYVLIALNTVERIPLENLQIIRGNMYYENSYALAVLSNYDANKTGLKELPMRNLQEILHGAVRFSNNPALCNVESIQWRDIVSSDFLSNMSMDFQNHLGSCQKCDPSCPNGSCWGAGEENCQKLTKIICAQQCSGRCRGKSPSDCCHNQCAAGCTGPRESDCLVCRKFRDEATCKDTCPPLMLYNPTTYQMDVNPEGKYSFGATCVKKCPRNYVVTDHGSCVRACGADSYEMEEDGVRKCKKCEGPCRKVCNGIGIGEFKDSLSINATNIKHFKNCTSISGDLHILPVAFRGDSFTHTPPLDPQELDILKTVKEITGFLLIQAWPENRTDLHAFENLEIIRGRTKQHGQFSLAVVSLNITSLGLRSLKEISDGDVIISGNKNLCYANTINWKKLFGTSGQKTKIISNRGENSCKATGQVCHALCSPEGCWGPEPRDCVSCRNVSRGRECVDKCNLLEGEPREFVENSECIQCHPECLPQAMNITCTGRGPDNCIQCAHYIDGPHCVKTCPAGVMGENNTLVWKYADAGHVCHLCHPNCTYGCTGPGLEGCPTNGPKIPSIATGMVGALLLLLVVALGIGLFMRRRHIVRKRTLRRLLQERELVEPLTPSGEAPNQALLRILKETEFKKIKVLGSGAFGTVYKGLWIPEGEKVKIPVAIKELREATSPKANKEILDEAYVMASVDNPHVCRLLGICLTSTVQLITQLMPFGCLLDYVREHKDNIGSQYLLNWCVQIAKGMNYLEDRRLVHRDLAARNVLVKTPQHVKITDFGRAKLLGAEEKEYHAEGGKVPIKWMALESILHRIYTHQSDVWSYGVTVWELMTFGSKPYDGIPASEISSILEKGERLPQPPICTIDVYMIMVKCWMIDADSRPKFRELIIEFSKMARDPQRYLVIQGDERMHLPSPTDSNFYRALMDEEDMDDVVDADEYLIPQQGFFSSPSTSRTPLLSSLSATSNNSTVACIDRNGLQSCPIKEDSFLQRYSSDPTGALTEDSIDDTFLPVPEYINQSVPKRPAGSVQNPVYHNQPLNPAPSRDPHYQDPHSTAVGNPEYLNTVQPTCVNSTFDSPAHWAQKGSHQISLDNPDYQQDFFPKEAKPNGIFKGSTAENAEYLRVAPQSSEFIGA
PDGFRβ, sequence (P09619 33-1106): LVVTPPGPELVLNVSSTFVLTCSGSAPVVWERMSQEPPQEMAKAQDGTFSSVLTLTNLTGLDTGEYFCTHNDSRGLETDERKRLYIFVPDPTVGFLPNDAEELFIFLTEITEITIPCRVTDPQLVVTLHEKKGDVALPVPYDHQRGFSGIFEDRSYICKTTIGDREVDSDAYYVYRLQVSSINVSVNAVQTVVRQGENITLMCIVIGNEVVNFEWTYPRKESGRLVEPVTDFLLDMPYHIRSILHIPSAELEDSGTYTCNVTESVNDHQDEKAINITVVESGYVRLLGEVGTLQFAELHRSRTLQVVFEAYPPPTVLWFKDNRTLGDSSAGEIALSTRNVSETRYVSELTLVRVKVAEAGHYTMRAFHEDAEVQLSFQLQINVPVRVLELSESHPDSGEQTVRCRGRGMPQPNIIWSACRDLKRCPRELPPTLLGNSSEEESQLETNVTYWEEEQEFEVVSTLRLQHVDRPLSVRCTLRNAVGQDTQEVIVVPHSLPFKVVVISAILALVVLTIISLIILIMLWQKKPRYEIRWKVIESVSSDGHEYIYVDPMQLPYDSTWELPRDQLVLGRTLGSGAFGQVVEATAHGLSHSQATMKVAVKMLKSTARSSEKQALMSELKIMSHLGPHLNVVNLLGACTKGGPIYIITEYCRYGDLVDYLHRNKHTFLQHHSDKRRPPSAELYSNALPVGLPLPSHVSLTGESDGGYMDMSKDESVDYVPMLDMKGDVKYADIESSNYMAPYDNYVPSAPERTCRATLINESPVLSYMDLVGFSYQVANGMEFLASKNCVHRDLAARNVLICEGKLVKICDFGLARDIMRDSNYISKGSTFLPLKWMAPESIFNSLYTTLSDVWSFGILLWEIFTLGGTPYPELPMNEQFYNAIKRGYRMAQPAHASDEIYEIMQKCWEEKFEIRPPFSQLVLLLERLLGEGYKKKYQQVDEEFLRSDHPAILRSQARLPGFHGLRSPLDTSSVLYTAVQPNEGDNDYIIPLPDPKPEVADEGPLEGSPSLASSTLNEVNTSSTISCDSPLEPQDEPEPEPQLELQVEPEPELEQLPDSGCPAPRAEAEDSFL
FGFR2, sequence (P21802 22-821, species assumed): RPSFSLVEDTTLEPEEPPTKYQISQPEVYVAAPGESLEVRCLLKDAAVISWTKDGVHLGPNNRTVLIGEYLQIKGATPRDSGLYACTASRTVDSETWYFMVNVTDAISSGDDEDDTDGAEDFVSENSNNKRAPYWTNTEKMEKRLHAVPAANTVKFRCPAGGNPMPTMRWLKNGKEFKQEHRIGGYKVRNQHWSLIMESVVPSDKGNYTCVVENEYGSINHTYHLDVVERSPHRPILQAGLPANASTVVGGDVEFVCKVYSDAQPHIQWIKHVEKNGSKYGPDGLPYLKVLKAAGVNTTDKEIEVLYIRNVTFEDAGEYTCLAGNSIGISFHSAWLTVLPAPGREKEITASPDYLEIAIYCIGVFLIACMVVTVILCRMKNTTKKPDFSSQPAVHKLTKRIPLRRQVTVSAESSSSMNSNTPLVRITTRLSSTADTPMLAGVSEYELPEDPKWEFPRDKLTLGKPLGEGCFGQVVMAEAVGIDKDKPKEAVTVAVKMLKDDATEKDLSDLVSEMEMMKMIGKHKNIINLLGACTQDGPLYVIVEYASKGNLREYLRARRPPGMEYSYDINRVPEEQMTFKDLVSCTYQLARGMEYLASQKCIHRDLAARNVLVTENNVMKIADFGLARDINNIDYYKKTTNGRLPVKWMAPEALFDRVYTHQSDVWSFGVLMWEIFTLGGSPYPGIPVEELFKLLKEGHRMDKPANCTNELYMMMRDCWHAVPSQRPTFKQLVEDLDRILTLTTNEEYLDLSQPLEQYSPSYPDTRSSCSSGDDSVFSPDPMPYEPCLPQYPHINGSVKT

CCN1CCN(c2ccc(Nc3ncc(C)c(Nc4ccc5cn[nH]c5c4)n3)cc2OC)CC1 [Compound 6i, N^2-(4-(4-ethylpiperazine-1-yl)-3-methoxyphenyl)-N^4-(1H-indazol-6-yl)-5-methylpyrimidine-2,4-diamine]
inhibition at 0.1 µM (ABL1): 95.3%
inhibitory activity on PDGFRα (in words) (PDGFRα): significant inhibitory activities
inhibition at 0.1 µM (PDGFRα; average, read-out: Average % inhibition PDGFR α): > 100%
inhibition at 0.1 µM (PDGFRα; replicate 1, read-out: % inhibition 1 PDGFR α): 98.9%
inhibition at 0.1 µM (PDGFRα; replicate 2, read-out: % inhibition 2 PDGFR α): 103%
inhibition at 0.1 µM (PDGFRα; read-out: inhibitory rate on PDGFR-α): 97.5%
IC50 (PDGFRα; read-out: IC50 PDGFR-α): 0.0027 µM
inhibition at 0.1 µM (EGFR L858R/T790M/C797S; average, read-out: Average % inhibition EGFR L858R/T790M/C797S): 74.5%
inhibition at 0.1 µM (EGFR L858R/T790M/C797S; replicate 1, read-out: % inhibition 1 EGFR L858R/T790M/C797S): 73.4%
inhibition at 0.1 µM (EGFR L858R/T790M/C797S; replicate 2, read-out: % inhibition 2 EGFR L858R/T790M/C797S): 75.7%
inhibition at 0.1 µM (EGFR/T790M/L858R; average, read-out: Average % inhibition EGFR/T790M/L858R): 77.2%
inhibition at 0.1 µM (EGFR/T790M/L858R; replicate 1, read-out: % inhibition 1 EGFR/T790M/L858R): 76.6%
inhibition at 0.1 µM (EGFR/T790M/L858R; replicate 2, read-out: % inhibition 2 EGFR/T790M/L858R): 77.9%
inhibition at 0.1 µM (KDR; average, read-out: Average % inhibition KDR): 71.4%
inhibition at 0.1 µM (KDR; replicate 1, read-out: % inhibition 1 KDR): 71.5%
inhibition at 0.1 µM (KDR; replicate 2, read-out: % inhibition 2 KDR): 71.3%
inhibition at 0.1 µM (SRC; average, read-out: Average % inhibition SRC): 92.2%
inhibition at 0.1 µM (SRC; replicate 1, read-out: % inhibition 1 SRC): 91%
inhibition at 0.1 µM (SRC; replicate 2, read-out: % inhibition 2 SRC): 93.5%
inhibition at 0.1 µM (EGFR; average, read-out: Average % inhibition EGFR): 42.3%
inhibition at 0.1 µM (EGFR; replicate 1, read-out: % inhibition 1 EGFR): 40.9%
inhibition at 0.1 µM (EGFR; replicate 2, read-out: % inhibition 2 EGFR): 43.6%
inhibition at 0.1 µM (BTK; average, read-out: Average % inhibition BTK): 50.2%
inhibition at 0.1 µM (BTK; replicate 1, read-out: % inhibition 1 BTK): 49.1%
inhibition at 0.1 µM (BTK; replicate 2, read-out: % inhibition 2 BTK): 51.3%
inhibition at 0.1 µM (EGFR T790M; average, read-out: Average % inhibition EGFR T790M): 56.9%
inhibition at 0.1 µM (EGFR T790M; replicate 1, read-out: % inhibition 1 EGFR T790M): 57%
inhibition at 0.1 µM (EGFR T790M; replicate 2, read-out: % inhibition 2 EGFR T790M): 56.8%
inhibition at 0.1 µM (EGFR L858R; average, read-out: Average % inhibition EGFR L858R): 62.1%
inhibition at 0.1 µM (EGFR L858R; replicate 1, read-out: % inhibition 1 EGFR L858R): 61.7%
inhibition at 0.1 µM (EGFR L858R; replicate 2, read-out: % inhibition 2 EGFR L858R): 62.6%
inhibition at 0.1 µM (FLT1; average, read-out: Average % inhibition FLT1): 79.7%
inhibition at 0.1 µM (FLT1; replicate 1, read-out: % inhibition 1 FLT1): 78.7%
inhibition at 0.1 µM (FLT1; replicate 2, read-out: % inhibition 2 FLT1): 80.7%
inhibition at 0.1 µM (FGFR3; average, read-out: Average % inhibition FGFR3): 10.9%
inhibition at 0.1 µM (FGFR3; replicate 1, read-out: % inhibition 1 FGFR3): 8.1%
inhibition at 0.1 µM (FGFR3; replicate 2, read-out: % inhibition 2 FGFR3): 13.7%
inhibition at 0.1 µM (FGFR1; average, read-out: Average % inhibition FGFR1): 65.8%
inhibition at 0.1 µM (FGFR1; replicate 1, read-out: % inhibition 1 FGFR1): 65%
inhibition at 0.1 µM (FGFR1; replicate 2, read-out: % inhibition 2 FGFR1): 66.6%
IC50 (JAK1): 0.0077 µM
inhibition at 0.1 µM (JAK1; average, read-out: Average % inhibition JAK1): 90.5%
inhibition at 0.1 µM (JAK1; replicate 1, read-out: % inhibition 1 JAK1): 91.7%
inhibition at 0.1 µM (JAK1; replicate 2, read-out: % inhibition 2 JAK1): 89.3%
IC50 (FGFR2): 0.027 µM
inhibition at 0.1 µM (FGFR2; average, read-out: Average % inhibition FGFR2): 83%
inhibition at 0.1 µM (FGFR2; replicate 1, read-out: % inhibition 1 FGFR2): 83.8%
inhibition at 0.1 µM (FGFR2; replicate 2, read-out: % inhibition 2 FGFR2): 82.1%
inhibitory activity on PDGFRβ (in words) (PDGFRβ): significant inhibitory activities
inhibition at 0.1 µM (PDGFRβ; average, read-out: Average % inhibition PDGFR β): > 100%
inhibition at 0.1 µM (PDGFRβ; replicate 1, read-out: % inhibition 1 PDGFR β): 101%
inhibition at 0.1 µM (PDGFRβ; replicate 2, read-out: % inhibition 2 PDGFR β): 103%
inhibition at 0.1 µM (PDGFRβ; read-out: inhibitory rate on PDGFR-β): 99.8%
IC50 (PDGFRβ; read-out: IC50 PDGFR-β): 0.0017 µM
IC50 ([1]; Homo sapiens, hCMEC/D3, MTT, read-out: Inhibitory activity (IC50) HCMEC-D3): 0.23 ± 0.002 µM
inhibitory activity on HCMEC/D3 (in words) ([1]; compared with multiple positive drugs): strong inhibitory activity
IC50 ([2]; Homo sapiens, ARPE-19, MTT, read-out: Inhibitory activity (IC50) ARPE-19): 17.5 ± 0.37 µM
inhibitory activity on ARPE-19 (in words) ([2]; at low concentration): almost no inhibitory activity
